Values joined by “and” are separate entries in the source; they are usually repeats but may differ in a detail not shown here. Equal values may be shown once.
Test system: dopamine release in the rat prefrontal cortex
Assay: Microdialysis: dopamine release in prefrontal cortex after I.P. administration
Format: in vivo
Settings: for DOPAMINE in dialysate, MEAN / DOPAMINE in dialysate, individual animals: Citalopram 10 mg/kg I.P.
Method: The aim of the study was to evaluate, using microdialysis, the effects of an intraperitoneal (I.P.) administration in rats of three different doses of SON-117 on dopamine and its metabolites, serotonin and its metabolite (5-HIAA), and norepinephrine levels in prefrontal cortex.
Thirty-two adult male Wistar rats were used for the whole study (4 groups of eight animals planned for the study, Table 1).
Surgery was performed on rats weighing about 300 g at the beginning of the experiments. Rats were anaesthetized with Ketamine (50 mg/kg) & Xylazine (15 mg/kg) by intramuscular administration. The animals were placed in a stereotaxic apparatus in the flat-skull position at a constant setting of −3.3 mm between ear bars and the incisor bar. The animals were treated with a local anesthesic (xylocaine 1%, Astra Zeneca) and an analgesic (Temgesic, from Schering Plough, 0.05 mg/kg, s.c.). A rostrocaudal midline incision was made with a lancet to expose the dorsal skull surface. The “stereotaxic zero” was defined by the Bregma in accordance with Paxinos and Watson's atlas (1986). A hole was drilled in the skull with a drill and the meninges were pierced with a sterile needle to implant a CMA12 guide cannula which later received the dialysis probe.
Coordinates used for implanting guide cannula in prefrontal cortex from Bregma were anteroposterior 3.7 mm, mediolateral 0.8 mm, and dorsoventral −2 mm (top of the probe was at −5 mm). The guide cannula was fixed to the skull with two stainless steel screws (1.88 mm outside diameter) anchored. An application of dental cement was added. A plastic collar allowed each animal to be tethered to a Swivel assembly of the CMA 120 awake animal system. Following surgery, rats were kept in individual cages and allowed to recover for a minimum of 3-5 days before the experimentation. The rats were handled and put in plastic bowl for 10 min at least every day to habituate the animals to their new environment for the dialysis. An I.P. administration with saline was also performed every day.
Dialysis probes (CMA12/3 mm, membrane, 20 kD cut-off, Carnegie Medicine, Stockholm, Sweden), were carefully washed before inserting into the guide cannula. The wash was performed with the artificial cerebrospinal fluid (aCSF) medium (NaCl 147 mM, KCl 2.7 mM, CaCl2 1.2 mM, MgCl2 0.85 mM) at room temperature. The dialysis system was then equilibrated at 20° C. at a perfusion rate of 1 μl/min with a Carnegie pump (CMA100). All catheters (FEP tubing, internal volume of 1.2 μl/10 cm, and tubing adaptors) used for microdialysis were treated in the same conditions.
The probes duly prepared were inserted into the guide cannula and the CMA120 Swivel assembly secured to the animal using a plastic collar. Flow through the dialysis probe with aCSF was maintained at a rate of 1 μl/min during the whole experimentation. The first four fractions (corresponding to 2 hours) were discarded to avoid the effects of parenchymal disturbance and to ensure that an approximate steady-state level was reached. Fractions were then collected over a period of 8.5 h during which time the animals remained quiet. The dialysates were automatically collected with an autosampler (microfraction collector CMA 140, Carnegie Medicin) and stored at −80° C. until analysis. […] Perfusion was then maintained for 7 hours with aCSF. The dialysates (30 μl) were collected into 300 μl vials, transferred into dry ice and then kept frozen (−80° C.) until analysis. Frozen samples were shipped to a partner for analysis. At the end of the microdialysis study, a PBS with colored ink was perfused through the probe in order to visualize the dialyzed area.
Catecholamine assay: Concentrations of dopamine, DOPAC, HVA, 5-HIAA, 5-HT, and norepinephrin were determined for each sample by HPLC coupled with electrochemical detection.

## CN(C)CCCC1(c2ccc(F)cc2)OCc2cc(C#N)ccc21 (centres unmarked) [Citalopram, citalopram, reference compound]
T0-T30 min
  DOPAMINE in dialysate, MEAN: 125.10 % of respective basal
T30-T1 h
  DOPAMINE in dialysate, MEAN: 100.99 % of respective basal
  DOPAMINE in dialysate, individual animals: 140.37 % of respective basal and 66.54 % of respective basal and 36.31 % of respective basal and 85.24 % of respective basal and 123.31 % of respective basal and 48.94 % of respective basal and 154.56 % of respective basal and 96.98 % of respective basal
T1 h 30-T2 h
  DOPAMINE in dialysate, MEAN: 186.16 % of respective basal
  DOPAMINE in dialysate, individual animals: 866.34 % of respective basal and 87.95 % of respective basal and 112.22 % of respective basal and 92.11 % of respective basal and 107.27 % of respective basal and 89.55 % of respective basal and 53.23 % of respective basal and 51.41 % of respective basal
T1 h-T1 h 30
  DOPAMINE in dialysate, MEAN: 170.05 % of respective basal
  DOPAMINE in dialysate, individual animals: 573.74 % of respective basal and 97.67 % of respective basal and 64.11 % of respective basal and 123.43 % of respective basal and 30.69 % of respective basal and 110.39 % of respective basal and 169.03 % of respective basal and 176.68 % of respective basal
T2 h 30-T3 h
  DOPAMINE in dialysate, MEAN: 108.77 % of respective basal
  DOPAMINE in dialysate, individual animals: 225.14 % of respective basal and 50.88 % of respective basal and 108.16 % of respective basal and 122.69 % of respective basal and 62.34 % of respective basal and 107.84 % of respective basal and 55.41 % of respective basal and 165.66 % of respective basal
T2 h-T2 h 30
  DOPAMINE in dialysate, MEAN: 255.07 % of respective basal
  DOPAMINE in dialysate, individual animals: 1031.09 % of respective basal and 91.06 % of respective basal and 160.05 % of respective basal and 100.78 % of respective basal and 166.56 % of respective basal and 132.77 % of respective basal and 334.66 % of respective basal and 26.69 % of respective basal
T3 h 30-T4 h
  DOPAMINE in dialysate, MEAN: 115.67 % of respective basal
  DOPAMINE in dialysate, individual animals: 243.96 % of respective basal and 23.86 % of respective basal and 113.64 % of respective basal and 73.20 % of respective basal and 174.87 % of respective basal and 59.22 % of respective basal and 97.27 % of respective basal and 119.98 % of respective basal
T3 h-T3 h 30
  DOPAMINE in dialysate, MEAN: 151.97 % of respective basal
  DOPAMINE in dialysate, individual animals: 49.37 % of respective basal and 157.89 % of respective basal and 78.55 % of respective basal and 231.36 % of respective basal and 125.19 % of respective basal and 190.71 % of respective basal and 225.63 % of respective basal
T4 h 30-T5 h
  DOPAMINE in dialysate, MEAN: 103.71 % of respective basal
  DOPAMINE in dialysate, individual animals: 201.72 % of respective basal and 24.62 % of respective basal and 85.39 % of respective basal and 56.71 % of respective basal and 60.52 % of respective basal and 195.94 % of respective basal and 92.15 % of respective basal
T4 h-T4 h 30
  DOPAMINE in dialysate, MEAN: 197.23 % of respective basal
  DOPAMINE in dialysate, individual animals: 337.02 % of respective basal and 36.95 % of respective basal and 127.24 % of respective basal and 110.17 % of respective basal and 45.45 % of respective basal and 94.94 % of respective basal and 255.00 % of respective basal and 192.48 % of respective basal
T5 h 30-T6 h
  DOPAMINE in dialysate, MEAN: 143.61 % of respective basal
  DOPAMINE in dialysate, individual animals: 63.71 % of respective basal and 183.35 % of respective basal and 112.87 % of respective basal and 229.69 % of respective basal and 57.13 % of respective basal and 228.31 % of respective basal and 145.07 % of respective basal
T5 h-T5 h 30
  DOPAMINE in dialysate, MEAN: 151.58 % of respective basal
  DOPAMINE in dialysate, individual animals: 209.25 % of respective basal and 54.45 % of respective basal and 141.19 % of respective basal and 97.47 % of respective basal and 150.97 % of respective basal and 246.92 % of respective basal
T6 h 30-T7 h
  DOPAMINE in dialysate, MEAN: 152.65 % of respective basal
  DOPAMINE in dialysate, individual animals: 300.59 % of respective basal and 88.72 % of respective basal and 128.46 % of respective basal and 71.16 % of respective basal and 147.69 % of respective basal and 77.59 % of respective basal and 325.54 % of respective basal and 82.54 % of respective basal
T6 h-T6 h 30
  DOPAMINE in dialysate, MEAN: 90.10 % of respective basal
  DOPAMINE in dialysate, individual animals: 138.93 % of respective basal and 48.75 % of respective basal and 107.97 % of respective basal and 57.49 % of respective basal and 83.90 % of respective basal and 102.96 % of respective basal and 83.47 % of respective basal and 66.13 % of respective basal
T-30 min-T0 (pre-dose)
  DOPAMINE in dialysate, MEAN: 107.61 % of respective basal
T-1 h 30-T-1 h (pre-dose)
  DOPAMINE in dialysate, MEAN: 77.78 % of respective basal
  DOPAMINE in dialysate, individual animals: 71.31 % of respective basal
T-1 h-T-30 min (pre-dose)
  DOPAMINE in dialysate, MEAN: 98.79 % of respective basal
Citalopram 10 mg/kg I.P., from T1.5 h and 2.5 h
  dopamine levels, increase (not significant): 255%

— patent US20250109127A1, “METHODS OF USE OF PHENOXYPROPYLAMINE COMPOUNDS TO TREAT DEPRESSION” (Minerva Neurosciences, Inc., priority 2013, published 2025)
